Assay results: PubChem BioAssay AID463203 (Broad Institute, 2010)
Active and inactive are the calls of the source.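 The calls were made as follows: active = more than half of replicate measurements showing over 20% loss of kinase signal relative to plate controls; inconclusive = some but at most half of replicates over 20% loss; inactive = no replicate over 20% signal loss.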

These compounds were tested against Glycogen synthase kinase-3 alpha (Homo sapiens) (UniProt P49840) (assay: concentration-response blocking of human GSK3A – biochemical, luminescence, cell-free homogeneous, retest, dose response (AID 463203)). Conditions: GSK-3 alpha enzyme, ADP-Glo luminescence, 60 min.
Sequence of Glycogen synthase kinase-3 alpha (Homo sapiens) (P49840 whole entry, looked up): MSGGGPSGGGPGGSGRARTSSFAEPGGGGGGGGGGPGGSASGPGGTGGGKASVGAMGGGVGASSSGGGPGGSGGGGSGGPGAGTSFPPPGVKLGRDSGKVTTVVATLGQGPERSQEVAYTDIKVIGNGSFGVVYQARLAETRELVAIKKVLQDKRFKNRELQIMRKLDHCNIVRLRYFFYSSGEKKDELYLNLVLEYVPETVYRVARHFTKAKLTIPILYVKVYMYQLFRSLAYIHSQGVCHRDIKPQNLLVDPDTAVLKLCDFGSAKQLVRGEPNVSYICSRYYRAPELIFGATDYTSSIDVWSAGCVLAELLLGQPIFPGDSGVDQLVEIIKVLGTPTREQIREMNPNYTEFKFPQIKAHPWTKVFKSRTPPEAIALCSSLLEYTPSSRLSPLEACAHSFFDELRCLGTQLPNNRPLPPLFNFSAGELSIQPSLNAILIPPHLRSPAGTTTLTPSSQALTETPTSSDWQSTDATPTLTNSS
COCCCNc1nc2nonc2nc1N1C[C@H]2CC[C@H]1C2 was tested, and the AC50 was > 30 µM (inactive).
With CCNc1c(C(=O)O)ccc2c1C(=O)c1ccccc1C2=O the AC50 was > 30 µM (inactive).
CCOC(=O)Nc1nc(C)c(C(=O)c2ccc(Cl)cc2)s1 was tested, and the AC50 was > 30 µM (inactive).
Work on N#C/C(C(N)=O)=C1/CCc2ccccc2N1 yielded an AC50 of 12.5 µM.
CN(Cc1c(C(=O)N/N=C/c2ccc(F)cc2)nnn1-c1nonc1N)C1CCCCC1 was tested, and the AC50 was > 30 µM (inactive).
With CCOC(=O)c1nc(NCc2cccnc2)c2ccccc2n1 the AC50 was > 30 µM (inactive).
In the case of Oc1ccc(-c2csc(Nc3cccnc3)n2)cc1, the AC50 is reported as 10.7 µM.
In the case of O=C1c2cnc3ncnn3c2CC2c3ccccc3CCN12 (configuration not stated), the AC50 is reported as > 30 µM (inactive).
O=C(CSc1nc2nc(-c3cccs3)cc(C(F)(F)F)c2c(=O)[nH]1)Nc1ccc(F)c(F)c1 was tested, and the AC50 was > 30 µM (inactive).
With O=C1NC(=Nc2ccccc2)S/C1=C\c1cccs1 the AC50 was > 30 µM (inactive).
With O=C(CN(Cc1ccc(F)cc1)C(=O)CCC(=O)Nc1nccs1)NCc1ccc(F)cc1 the AC50 was 9.59 µM.
CCn1c2ccc(F)cc2c2nc3ccccc3nc21 was tested, and the AC50 was > 30 µM (inactive).
COc1ccccc1N=c1oc2cc(O)ccc2cc1C(=O)NCC1CCCO1 (configuration not stated) was tested, and the AC50 was > 30 µM (inactive).
In the case of O=[N+]([O-])c1ccccc1-c1cc(-c2ccccc2O)n[nH]1, the AC50 is reported as > 30 µM (inactive).
With CCCCOC(=O)Nc1nnc(COc2ccccc2)s1 the AC50 was > 30 µM (inactive).
For COC(=O)c1c(NC(=O)CN2C(=O)NC3(CCC(C(C)(C)C)CC3)C2=O)sc2c1CCCCC2 (configuration not stated), the AC50 was > 30 µM (inactive).
Cc1onc(-c2ccccc2Cl)c1C(=O)Nc1ccc(-c2cn3cccnc3n2)cc1 was tested, and the AC50 was > 30 µM (inactive).
With CC(C(=O)Nc1cccc(Br)c1)c1ccc([N+](=O)[O-])cc1 (configuration not stated) the AC50 was > 30 µM (inactive).
In the case of CCOc1cccc(-c2c(C(=O)N/N=C(\C)c3cccnc3)nnn2-c2nonc2N)c1, the AC50 is reported as 5.21 µM.
With COc1ccc(CC(=O)NCCc2cnc[nH]2)cc1 the AC50 was > 30 µM (inactive).
With O=C(Nc1ccccc1N1CCOCC1)c1cnccn1 the AC50 was 28.6 µM.
In the case of Cc1cccc(N(CC(O)CN2CCCC2)S(=O)(=O)c2ccccc2)c1 (configuration not stated), the AC50 is reported as > 30 µM (inactive).
In the case of Clc1cncc(Cl)c1N/N=C/c1ccncc1, the AC50 is reported as > 30 µM (inactive).
For COc1cc(CN2CCCN(C)CC2)c([N+](=O)[O-])cc1OC, the AC50 was > 30 µM (inactive).
For Cc1cccc(N=c2oc3cc(O)ccc3cc2C(N)=O)c1, the AC50 was 5.52 µM.
In the case of CCOC(=O)c1nnn(-c2nonc2N)c1COc1ccc(F)cc1, the AC50 is reported as 4.9 µM.
For Cc1cnn(-c2cc(N/N=C/c3ccccc3)ncn2)c1, the AC50 was > 30 µM (inactive).
For CC1=NN(c2nc(-c3ccc(Cl)cc3)cs2)C(=O)C1, the AC50 was > 30 µM (inactive).
In the case of Nc1ccc2c(c1)C(=O)c1ccccc1C2=O, the AC50 is reported as > 30 µM (inactive).
O=C(COC(=O)c1cc(S(=O)(=O)N2CCOCC2)ccc1F)Nc1ccc(Cl)cn1 showed an AC50 of 2.72 µM.
For COc1ccc(-c2cc(=O)c3c(O)cc(O)cc3o2)cc1, the AC50 was 4.21 µM.
Oc1ccc(-c2nc3ncccn3c2Nc2ccc3c(c2)OCO3)cc1 showed an AC50 of 6.33 µM.
In the case of NCCNc1cc(N2CCCC2)ccc1[N+](=O)[O-], the AC50 is reported as > 30 µM (inactive).
For COc1ccc2c3c(cccc13)OC2=O, the AC50 was > 30 µM (inactive).
COc1cc(/C=N/Nc2nc(=O)[nH]nc2C)cc([N+](=O)[O-])c1O was tested, and the AC50 was 22.1 µM.
N#Cc1c(Nc2ccccc2)c(/C=N/N=C/c2ccccc2)c[nH]c1=O was tested, and the AC50 was > 30 µM (inactive).
With CC1(C)Cc2c(sc3c2C2=NCCN2C=N3)CO1 the AC50 was > 30 µM (inactive).
In the case of O=c1[nH]nc(SCCS(=O)(=O)c2ccc(F)cc2)n1-c1ccccc1C(F)(F)F, the AC50 is reported as 17.5 µM.
COC(=O)c1nnn(-c2ccccc2)c1N was tested, and the AC50 was > 30 µM (inactive).
C/C(=C/c1oc2ccc(O)cc2c1[N+](=O)[O-])N(C)C was tested, and the AC50 was > 30 µM (inactive).
For CC(C)(C)CNc1cc(N2CCCC2)ccc1[N+](=O)[O-], the AC50 was > 30 µM (inactive).
COc1ccc(-c2cc(C(F)(F)F)nc(SCC(=O)NCc3cccs3)n2)cc1 was tested, and the AC50 was > 30 µM (inactive).
CCn1c(SCC(=O)N/N=C/C=C\c2ccco2)nc2ccccc21 was tested, and the AC50 was > 30 µM (inactive).
CC1(C)CC(=O)C(C(c2ccncc2)C2C(=O)CC(C)(C)CC2=O)C(=O)C1 was tested, and the AC50 was > 30 µM (inactive).
For COc1ccc(CC(=S)N2CCOCC2)cc1, the AC50 was > 30 µM (inactive).
Cc1cc(C(=O)N/N=C/c2cc(N=Nc3ccccc3)ccc2O)n[nH]1 was tested, and the AC50 was > 30 µM (inactive).
In the case of COc1ccc(/C=C/c2nc(N)nc(-c3ccccc3O)n2)cc1, the AC50 is reported as > 30 µM (inactive).
In the case of COc1ccccc1/C=N/NC(=O)c1ccccc1Cl, the AC50 is reported as > 30 µM (inactive).
C=CCNc1nc(N)c(C(=O)c2ccc3c(c2)OCO3)s1 showed an AC50 of 0.211 µM.
COc1ccc(-c2csc3ncnc(NCCCO)c23)cc1 showed an AC50 of 20.6 µM.
Cc1oc2ccc(O)cc2c1C(=O)c1ccc(F)cc1 was tested, and the AC50 was > 30 µM (inactive).
CCOc1ccccc1NC(=O)Nc1ccc(Cl)cc1 was tested, and the AC50 was > 30 µM (inactive).
With Cc1cccc(C(=O)Nc2cccc(-c3cnc4ccccc4n3)c2)c1 the AC50 was > 30 µM (inactive).
In the case of C/C(=N\NC(=O)c1nnn(-c2nonc2N)c1CN(C)c1ccccc1)c1ccc(O)cc1, the AC50 is reported as > 30 µM (inactive).
Compound CC1CCCN(Cc2c(O)ccc3c2O/C(=C\c2ccco2)C3=O)C1 (configuration not stated) has an AC50 of 9.29 µM.
CC1(C)CC(=O)C(C=NCCc2ccc(O)cc2)=C(O)C1 was tested, and the AC50 was > 30 µM (inactive).
COc1ccc(NC2CC(=O)NC2=O)cc1 (configuration not stated) was tested, and the AC50 was > 30 µM (inactive).
Cc1ccc(S(=O)(=O)Nc2cc(Cl)c(O)c3ncccc23)cc1 was tested, and the AC50 was > 30 µM (inactive).
With COc1ccc(Nc2nc(N)nc(COc3ccc(OC)cc3)n2)cc1 the AC50 was > 30 µM (inactive).
Fc1cccc(Nc2nc(-c3ccncc3)nc3ccccc23)c1 was tested, and the AC50 was > 30 µM (inactive).
In the case of Cc1ccc(C(=O)N2NC(c3ccc(F)cc3)C3C(=O)N(c4ccc(C)cc4)C(=O)C32)cc1 (configuration not stated), the AC50 is reported as > 30 µM (inactive).
For O=C1NC(=Nc2cccc(O)c2)S/C1=C\c1cccc([N+](=O)[O-])c1, the AC50 was > 30 µM (inactive).
For Oc1ccc2oc3c(c2c1C=NCc1ccncc1)CCCC3, the AC50 was > 30 µM (inactive).
For CC[n+]1c(/C=C/C=C/N(C(C)=O)c2ccccc2)sc2ccccc21, the AC50 was > 30 µM (inactive).
In the case of COc1cccc2c1C(=O)O/C2=C/c1ccc2c(c1)OCO2, the AC50 is reported as > 30 µM (inactive).
CCn1c2ccc(Cl)cc2c2nc3ccccc3nc21 was tested, and the AC50 was > 30 µM (inactive).
For CCOC(=O)N1CCC(N2CCN(S(=O)(=O)c3ccc(C)cc3)CC2)CC1, the AC50 was > 30 µM (inactive).
With O=c1cc(-c2ccc(O)c(O)c2)oc2c1ccc1ccccc12 the AC50 was 5.66 µM.
Work on CCc1cc2c(N3CCN(c4nnc(CC)s4)CC3)ncnc2s1 yielded an AC50 of 16 µM.
Compound CC(=O)Nc1cccc(-c2cnc(N)c(C(=O)c3cccnc3)n2)c1 has an AC50 of 0.105 µM.
CCCCC(=O)Nc1nn(CCC)c2nc3ccccc3cc12 was tested, and the AC50 was > 30 µM (inactive).
Compound Cc1cc(/C=N/Nc2ccc([N+](=O)[O-])cn2)c(C)n1-c1cccc(C(=O)O)c1 has an AC50 of 14.6 µM.
In the case of CCC(Oc1ccccc1)C(=O)N(C)CC(=O)N(CC(C)C)c1c(N)n(CC(C)C)c(=O)[nH]c1=O (configuration not stated), the AC50 is reported as > 30 µM (inactive).
In the case of S=C(Nc1ccc(Cl)cc1)Nc1cccc2cnccc12, the AC50 is reported as > 30 µM (inactive).
COc1c(-c2ccc(O)c(O)c2)oc2cc(O)cc(O)c2c1=O was tested, and the AC50 was 1.93 µM.
For CCOC(=O)c1cnc2cc(F)c(F)cc2c1N1CCN(C)CC1, the AC50 was > 30 µM (inactive).
With CN1CCc2nc3sc(C(=O)NC4CC4)c(N)c3cc2C1 the AC50 was > 30 µM (inactive).
With Cc1ccc(S(=O)(=O)N2CCN(C(=O)n3ccnc3)CC2)cc1 the AC50 was > 30 µM (inactive).
With CCC(=O)NCCNc1ccc([N+](=O)[O-])cn1 the AC50 was > 30 µM (inactive).
For O=c1[nH]c(=O)n(C2CCCCCC2)c(O)c1C=NC1CCN(Cc2ccccc2)CC1, the AC50 was 9.67 µM.
With CCOC(=O)c1sc(NC(=O)CN2C(=O)NC3(CCC(C)CC3)C2=O)c(C(=O)OCC)c1C (configuration not stated) the AC50 was > 30 µM (inactive).
For COc1ccc(NC(=O)c2c(Nc3ccccc3)sc(C(=O)c3ccc(F)cc3)c2N)cc1, the AC50 was > 30 µM (inactive).
Cc1ccc(C2C3=C(CCCC3=O)Nc3c2c(C)nn3-c2ccccn2)o1 (configuration not stated) was tested, and the AC50 was > 30 µM (inactive).
In the case of COC(=O)C1=C(C(=O)OC)C(c2cc(Cl)ccc2O)c2sc(=O)[nH]c2S1 (configuration not stated), the AC50 is reported as 28.4 µM.
With O=C(Nc1ccc(Cl)c([N+](=O)[O-])c1)c1ccc(NCCCN2CCOCC2)c([N+](=O)[O-])c1 the AC50 was > 30 µM (inactive).
In the case of C#CCOCCOCCOCCNc1nc(N2CCN(C(=O)CCCCCCCCCCNC(=O)[C@H](CCCCN)n3cc(C)nn3)CC2)nc(N2CCN(C(=O)CCCCCCCCCCNC(=O)[C@H](CCCN=C(N)N)n3cc(C[C@@H](C)CC)nn3)CC2)n1, the AC50 is reported as > 30 µM (inactive).
O=C(CSc1nc2ccccc2c(=O)n1-c1ccc(F)cc1F)c1c[nH]c2ccccc12 was tested, and the AC50 was > 30 µM (inactive).
With Cc1nc(SCC(=O)NCC2CCCO2)c2c3c(sc2n1)CCC3 (configuration not stated) the AC50 was > 30 µM (inactive).
COC1(OC)N=C(N)C2(C#N)C(c3ccc(C)cc3)C12C#N (configuration not stated) was tested, and the AC50 was > 30 µM (inactive).
Compound COc1ccc2nc(NC(=O)CSc3cn[nH]n3)sc2c1 has an AC50 of 9.56 µM.
In the case of O=c1[nH]c(=O)n(Cc2ccco2)c(O)c1/C=N/N1CCCCC1, the AC50 is reported as > 30 µM (inactive).
With Fc1ccccc1-c1nnc2ccc3ccccc3n12 the AC50 was > 30 µM (inactive).
Work on C(=N\Nc1ncnc2sc3c(c12)CCC3)/c1ccncc1 yielded an AC50 of 5.85 µM.
With Cc1nc(SCC(=O)Nc2nc3ccccc3s2)n[nH]1 the AC50 was > 30 µM (inactive).
For CCN(CC)CCOc1ccc2c(c1)C(=NNC(=O)c1ccccn1)c1cc(OCCN(CC)CC)ccc1-2, the AC50 was > 30 µM (inactive).
In the case of Cc1c2c(n3c(nc4ccccc43)c1C#N)N(CCN(C)C)CC2, the AC50 is reported as 21.7 µM.
Nc1nonc1-n1nnc(C(=O)N/N=C/c2ccco2)c1-c1ccccc1 gave an AC50 of 18.5 µM.
In the case of CC1(C)CC(=O)C2=C(C1)Nc1nc(SCCN3CCOCC3)[nH]c(=O)c1C2c1cccs1 (configuration not stated), the AC50 is reported as > 30 µM (inactive).
With Cc1ccc(SCCc2cc[n+](CC(=O)c3ccccc3)cc2)cc1 the AC50 was > 30 µM (inactive).
CCOc1cccc(-c2c(C(=O)N/N=C/c3ccoc3)nnn2-c2nonc2N)c1 showed an AC50 of 6.81 µM.
For CC1=C(C#N)c2nc(N)c(C#N)c(C)c2/C1=C\c1ccc(OCC(=O)O)c(Cl)c1, the AC50 was 20.4 µM.
With COC1(OC)N=C(NC(=O)Nc2ccccc2)C2(C#N)C(c3ccccc3)C12C#N (configuration not stated) the AC50 was > 30 µM (inactive).
